{"source": "paper PMC5339874", "about": "“Fluorene-9-bisphenol is anti-oestrogenic and may cause adverse pregnancy outcomes in mice” (Nature Communications, 2017)", "key": {"CD-1 mice": {"test_system": "CD-1 mice", "assay": "Subchronic and reproductive toxicity tests", "protocol": "Immature CD-1 mice (20 days old) were obtained from Experimental Animal Tech Co. of Weitonglihua (Beijing, China) and acclimatized in an experimental environment with a temperature of 22 °C±2 °C, relative humidity between 40 and 60%, and artificial lighting in a 12 h/12 h light-dark cycle. The animals were fed ad libitum with a basic diet from the Laboratory Animal Center of the Academy of Military Medical Sciences (Beijing, China), and drinking water was provided ad libitum. […] The animals were housed five to a cage until the pairing date. The treatment via oral gavage of each mouse was performed once every 3 days beginning on PND 24. The chemicals were dissolved in peanut oil to the appropriate concentrations. The volume of vehicle or chemical solutions administered was adjusted daily based on body weight measured during the dosing period according to the volume-body weight ratio of 5 ml kg^−1 bw. On PND 60, 10 females of each group were weighed and killed by cervical dislocation. The uteri, ovaries, livers, kidneys and spleens were weighed and collected for histological analysis. At the age of PND 77, males and females were paired. Each morning, the females were examined for the presence of vaginal plugs. Gestational day 1 was defined as the day on which a vaginal plug was found. In cases where pairing was unsuccessful, females were re-mated with proven males of the same group, except that females in the 1.2 mg kg^−1 TAM group were re-mated with proven males of the control group. After a 7-day mating period, the males were weighed and killed, and organs were weighed and collected for further analysis. Cauda epididymal sperm was collected from each mouse and observed under a trinocular microscope (Olympus BX53) in physiological saline. A microscopic video was recorded and analysed for sperm quality evaluation. The treatment via oral gavage was continued for the females until day 19 of pregnancy. On post-partum days 0 and 4, the weights of the dams and pups were recorded and the pups were checked for abnormalities. On post-partum day 4, the dams were weighed and killed, and their organs were weighed and collected for further analysis. The ovaries and uteri were examined for the numbers of corpora lutea and implantation sites, respectively. Finally, the non-pregnant and nulliparous females were killed for histopathological analysis. For histological examination, organs and tissues were fixed in formalin fixation, embedded in paraffin, and sectioned serially at 5 μm. Slides were stained with hematoxylin and eosin (H&E), and observed under a light microscope (Olympus BX53)."}, "sprr2a and sprr2b": {"test_system": "sprr2a and sprr2b", "assay": "Q-RT-PCR of sprr2a and sprr2b in uteri after 10-day dosing", "format": "in vivo, mice", "conditions": "10 days; P<0.05", "protocol": "The uteri, ovaries and livers were collected for total RNA isolation. Total RNA was isolated using Trizol reagent (Invitrogen) and further purified by NucleoSpin RNA Clean-up (Macherey-Nagel, Germany). Fluorescence labelling of the RNA samples was performed with a Jingxin cRNA linear amplification and labelling kit (CapitalBio) according to the manufacturer's instructions. The total RNA from each pool of tissue samples (a mixture from three animals) was used for microarray analysis. Cy3 dCTP was used to label the samples. The labelled products were added to SurePrint G3 mouse gene expression 8 × 60 K microarrays (Agilent) and incubated overnight at 42 °C. Following hybridization, the gene arrays were washed and scanned using an Agilent G2565CA Microarray Scanner. Glyceraldehyde 3-phosphate dehydrogenase (GAPDH) was used as an endogenous control to monitor the quality of the target preparation. The data were processed with feature extraction software (GeneSpring GX v.11; Agilent). The raw signals were log-transformed and normalized with the percentile shift normalization method. All arrays met the minimum Agilent QA/QC standards. To verify the data from the gene array, 14 genes were chosen as candidates for Q-RT-PCR. Primers are listed in Supplementary Table 4. GAPDH was used as an endogenous control. […] The relative expression was quantified using the 2^(−ΔΔCt) method. […]"}}}
{"smiles": "Oc1ccc(C2(c3ccc(O)cc3)c3ccccc3-c3ccccc32)cc1", "note": "[BHPF, 9,9-bis(4-hydroxyphenyl)-fluorene]", "values": [{"measurement": "Absorption sites in the uterus of dams", "setting": "CD-1 mice; 0.4 mg kg^−1 3-d^−1 BHPF", "result": "0.14±0.36"}, {"measurement": "Birth weight of pups", "setting": "CD-1 mice; 0.4 mg kg^−1 3-d^−1 BHPF", "result": "1.66±0.21"}, {"measurement": "Body weight of female pups at PND 4", "setting": "CD-1 mice; 0.4 mg kg^−1 3-d^−1 BHPF", "result": "3.08±0.57"}, {"measurement": "Body weight of male pups at PND 4", "setting": "CD-1 mice; 0.4 mg kg^−1 3-d^−1 BHPF", "result": "3.30±0.56"}, {"measurement": "Implantation sites in the uterus of dams", "setting": "CD-1 mice; 0.4 mg kg^−1 3-d^−1 BHPF", "result": "15.21±2.02"}, {"measurement": "Number of dams", "setting": "CD-1 mice; 0.4 mg kg^−1 3-d^−1 BHPF", "result": 14}, {"measurement": "Number of live pups per litter", "setting": "CD-1 mice; 0.4 mg kg^−1 3-d^−1 BHPF", "result": "12.71±2.55"}, {"measurement": "weight gain of males from PND 30", "setting": "CD-1 mice; 0.4 mg kg^−1 3-d^−1 BHPF", "result": "higher weight gain than the control"}, {"measurement": "non-pregnant females", "setting": "CD-1 mice; 0.4 mg kg^−1 bw 3-d^−1 BHPF", "result": 1}, {"measurement": "Absorption sites in the uterus of dams", "setting": "CD-1 mice; 2 mg kg^−1 3-d^−1 BHPF", "result": "0.33±0.65"}, {"measurement": "Birth weight of pups", "setting": "CD-1 mice; 2 mg kg^−1 3-d^−1 BHPF", "result": "1.59±0.24"}, {"measurement": "Body weight of female pups at PND 4", "setting": "CD-1 mice; 2 mg kg^−1 3-d^−1 BHPF", "result": "3.04±0.62"}, {"measurement": "Body weight of male pups at PND 4", "setting": "CD-1 mice; 2 mg kg^−1 3-d^−1 BHPF", "result": "3.18±0.59"}, {"measurement": "Implantation sites in the uterus of dams", "setting": "CD-1 mice; 2 mg kg^−1 3-d^−1 BHPF", "result": "15.42±2.02"}, {"measurement": "Number of dams", "setting": "CD-1 mice; 2 mg kg^−1 3-d^−1 BHPF", "result": 12}, {"measurement": "Number of live pups per litter", "setting": "CD-1 mice; 2 mg kg^−1 3-d^−1 BHPF", "result": "11.67±2.06"}, {"measurement": "non-pregnant females", "setting": "CD-1 mice; 2 mg kg^−1 bw 3-d^−1 BHPF", "result": 3}, {"measurement": "Absorption sites in the uterus of dams", "setting": "CD-1 mice; 10 mg kg^−1 3-d^−1 BHPF", "result": "0.64±0.67"}, {"measurement": "Birth weight of pups", "setting": "CD-1 mice; 10 mg kg^−1 3-d^−1 BHPF", "result": "1.54±0.18"}, {"measurement": "Body weight of female pups at PND 4", "setting": "CD-1 mice; 10 mg kg^−1 3-d^−1 BHPF", "result": "3.05±0.44"}, {"measurement": "Implantation sites in the uterus of dams", "setting": "CD-1 mice; 10 mg kg^−1 3-d^−1 BHPF", "result": "16.09±1.81"}, {"measurement": "Number of dams", "setting": "CD-1 mice; 10 mg kg^−1 3-d^−1 BHPF", "result": 11}, {"measurement": "Number of live pups per litter", "setting": "CD-1 mice; 10 mg kg^−1 3-d^−1 BHPF", "result": "12.73±1.85"}, {"measurement": "non-pregnant females", "setting": "CD-1 mice; 10 mg kg^−1 bw 3-d^−1 BHPF", "result": 3}, {"measurement": "fetal death", "setting": "CD-1 mice; 10 mg kg^−1 bw 3-d^−1 BHPF, a pregnant female", "result": "a dead fetus in late pregnancy was observed in the uterus"}, {"measurement": "Absorption sites in the uterus of dams", "setting": "CD-1 mice; 50 mg kg^−1 3-d^−1 BHPF", "result": "1.09±1.38"}, {"measurement": "Birth weight of pups", "setting": "CD-1 mice; 50 mg kg^−1 3-d^−1 BHPF", "result": "1.64±0.16"}, {"measurement": "Body weight of female pups at PND 4", "setting": "CD-1 mice; 50 mg kg^−1 3-d^−1 BHPF", "result": "3.20±0.53"}, {"measurement": "Body weight of male pups at PND 4", "setting": "CD-1 mice; 50 mg kg^−1 3-d^−1 BHPF", "result": "3.21±0.51"}, {"measurement": "Implantation sites in the uterus of dams", "setting": "CD-1 mice; 50 mg kg^−1 3-d^−1 BHPF", "result": "14.45±2.42"}, {"measurement": "Number of dams", "setting": "CD-1 mice; 50 mg kg^−1 3-d^−1 BHPF", "result": 11}, {"measurement": "Number of live pups per litter", "setting": "CD-1 mice; 50 mg kg^−1 3-d^−1 BHPF", "result": "10.27±2.53"}, {"measurement": "late abortion", "setting": "CD-1 mice; 50 mg kg^−1 bw 3-d^−1 BHPF", "result": "one case of late abortion"}, {"measurement": "maternal death", "setting": "CD-1 mice; 50 mg kg^−1 bw 3-d^−1 BHPF", "result": "one unexplained maternal death during parturition"}, {"measurement": "non-pregnant females", "setting": "CD-1 mice; 50 mg kg^−1 bw 3-d^−1 BHPF", "result": 2}, {"measurement": "weight gain before pairing", "setting": "CD-1 mice; BHPF 0.4–50, TAM 1.2 mg kg^−1 bw 3-d^−1", "result": "no significant differences in weight gain"}, {"measurement": "doses causing adverse pregnancy outcomes", "setting": "CD-1 mice; CD-1 mice", "result": "≥ 2", "unit": "mg kg^−1 bw 3-d^−1"}, {"measurement": "doses inducing atrophic endometria", "setting": "CD-1 mice; CD-1 mice", "result": "≥ 0.4", "unit": "mg kg^−1 bw 3-d^−1"}, {"measurement": "pregnancy-related weight gain", "setting": "CD-1 mice; all BHPF-treated groups", "result": "significantly decreased"}, {"measurement": "analysis of ovary sections", "setting": "CD-1 mice; females at PND 60", "result": "retarded follicular development and reduced the numbers of corpora lutea"}, {"measurement": "histopathological examination of uteri", "setting": "CD-1 mice; females at PND 60, 36-day exposure", "result": "serious atrophic endometria"}, {"measurement": "weights of the ovaries on both sides", "setting": "CD-1 mice; females at PND 60, BHPF groups, 1.2 mg kg^−1 bw 3-d^−1 TAM", "result": "not affected"}, {"measurement": "doses significantly decreasing uterine weights and inducing atrophic endometria", "setting": "CD-1 mice; intact female mice, oral gavage 36 days from PND 24", "result": "≥ 2", "unit": "mg kg^−1 3-d^−1"}, {"measurement": "sperm quality", "setting": "CD-1 mice; males PND 84", "result": "No obvious adverse effects"}, {"measurement": "pathological examination of seminal vesicle", "setting": "CD-1 mice; males PND 84, TAM 1.2, BHPF 50 mg kg^−1 bw 3-d^−1 group", "result": "one case of unilateral seminal vesicle atrophy"}, {"measurement": "histopathological examination of ovaries", "setting": "CD-1 mice; non-pregnant females", "result": "haemorrhagic ovary cysts occurred"}, {"measurement": "doses significantly down-regulating sprr2a and sprr2b in uteri", "setting": "sprr2a and sprr2b", "result": "≥ 9.26", "unit": "mg kg^−1 bw d^−1"}]}
